Source: PubChem BioAssay (NCI)
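Grown in 96-well plates, cells were treated for 48 hours with each compound at five concentrations. Insufficient inhibition: endpoint recorded as highest concentration tested. Here, GI50 denotes the concentration required for 50% inhibition of growth. TGI: total growth inhibition.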

Tests used:
Experiment in all cases: NCI-60 cell line screen, 48 h
[1] = system: 786-0 renal
[2] = system: DU-145 prostate
[3] = system: HCT-15 colon
[4] = system: IGROV1 ovarian
[5] = system: LOX IMVI melanoma
[6] = system: M14 melanoma
[7] = system: MALME-3M melanoma
[8] = system: OVCAR-4 ovarian
[9] = system: OVCAR-8 ovarian
[10] = system: RXF 393 renal

| Structure (SMILES) | GI50 [1] [µM] | TGI [1] [µM] | GI50 [2] [µM] | TGI [2] [µM] | GI50 [3] [µM] | TGI [3] [µM] | GI50 [4] [µM] | TGI [4] [µM] | GI50 [5] [µM] | TGI [5] [µM] | GI50 [6] [µM] | TGI [6] [µM] | GI50 [7] [µM] | TGI [7] [µM] | GI50 [8] [µM] | TGI [8] [µM] | GI50 [9] [µM] | TGI [9] [µM] | GI50 [10] [µM] | TGI [10] [µM] |
| --- | --- | --- | --- | --- | --- | --- | --- | --- | --- | --- | --- | --- | --- | --- | --- | --- | --- | --- | --- | --- |
| CO[C@H]1/C=C/O[C@@]2(C)Oc3c(C)c(O)c4c(O)c(c(/C=N/N5C(C)CN(Cc6ccc(C#N)cc6)CC5C)c(O)c4c3C2=O)NC(=O)/C(C)=C\C=C\[C@H](C)[C@H](O)[C@@H](C)[C@@H](O)[C@@H](C)[C@H](OC(C)=O)[C@@H]1C (stereo partly drawn) | 8.79 | 16.8 | 8.16 | 15.3 | 6.01 | 14 | 7.61 | 16.4 | 6.84 | 13.4 | 7.6 | 16.2 | 8.56 | 20.5 | 7.49 | 26.4 | 10.4 | 38.9 | 8.88 | 19.4 |
| Oc1c(CN2CCCCC2)ccc2cccnc12 | 2.72 | > 100 | 5.42 | 36.4 | 0.728 | 82.9 | 2.52 | 7.8 | 3.6 | 17.3 | 2.3 | 8.06 | 7.18 | 52.5 | 2.98 | 9.59 | 3.18 | 22.8 | 4.15 | 34.8 |
| O=c1cc(-c2ccccc2)oc2c(O)c(O)ccc12 | 5.99 | 75.1 | 8.66 | > 100 | 5.45 | > 100 | 6.99 | 47.1 | 9.58 | > 100 | 9.55 | 41.4 | 17.4 | 60.2 | 3.73 | > 100 | 5.65 | > 100 | 9.95 | 52.7 |
| COc1nc2c(c(=O)n1C)CN(c1ccccc1)C(=O)CN2C | > 100 | > 100 | 61.1 | > 100 | 56.7 | > 100 | 4.33 | > 100 | > 100 | > 100 | 62.6 | > 100 | 46.7 | > 100 | 71.2 | > 100 | 74.5 | > 100 | 54.3 | > 100 |
| CCOc1ccc(Nc2ccnc3cc(Cl)ccc23)cc1 | 41.1 | > 100 | > 100 | > 100 | 4.38 | > 100 | > 100 | > 100 | 41.9 | > 100 |  |  | > 100 | > 100 | 78.3 | > 100 | 79.9 | > 100 | 72.3 | > 100 |
| CC(C)(C)c1cc[n+](C[n+]2ccc(C(C)(C)C)cc2)cc1 |  | > 100 |  | > 100 |  | > 100 |  | > 100 |  |  |  | > 100 |  | > 100 |  | > 100 |  | > 100 |  | > 100 |
| Cc1cc(C)c([I+]c2c(C)cc(C)cc2C)c(C)c1 | 0.749 | 2.11 | 0.622 | 2.02 | 2.15 | 6.76 |  |  |  |  | 0.44 | 1.69 | 0.37 | 1.46 | 0.277 | 1.35 | 0.286 | 1.09 | 0.398 | 1.55 |
